Consider eleven compounds from patent US10800746B2, “Oxoalkyl-substituted phenyltriazole derivatives and uses thereof” (BAYER PHARMA AKTIENGESELLSCHAFT, priority 2016, dated 2020).

One experiment deals with human V1a receptor (Homo sapiens (Human), UniProt P37288). Nature of the experiment: Cellular in vitro assay for vasopressin receptor activity, V1a receptor cell line (aequorin luminescence). In kind it is cell-based. To be noted: CHO cell line transfected with human V1a receptor; [Arg8]-vasopressin at EC50; read-out: IC50 hV1a. The method, then: (§1) The identification of agonists and antagonists of the V1a and V2 vasopressin receptors from humans, rats and dogs as well as the quantification of the activity of the compounds of the invention is carried out using recombinant cell lines. These cell lines originally derive from a hamster's ovary epithelial cell (Chinese Hamster Ovary, CHO K1, ATCC: American Type Culture Collection, Manassas, Va. 20108, USA). The test cell lines constitutively express the human, rat or dog V1a or V2 receptors. In case of the Gαq-coupled V1a receptors, cells are also stably transfected with a modified form of the calcium-sensitive photoproteins aequorin (human and rat V1a) or obelin (dog V1a), which, after reconstitution with the cofactor coelenterazine, emit light when there are increases in free calcium concentrations [Rizzuto R, Simpson A W, Brini M, Pozzan T, Nature 358, 325-327 (1992); Illarionov B A, Bondar V S, Illarionova V A, Vysotski E S, Gene 153 (2), 273-274 (1995)]. The resulting vasopressin receptor cells react to stimulation of the recombinantly expressed V1a receptors by intracellular release of calcium ions, which can be quantified by the resulting photoprotein luminescence. The Gs-coupled V2 receptors are stably transfected into cell lines expressing the gene for firefly luciferase under control of a CRE-responsible promoter. Activation of V2 receptors induces the activation of the CRE-responsive promoter via cAMP increase, thereby inducing the expression of firefly luciferase. The light emitted by photoproteins of V1a cell lines as well as the light emitted by firefly luciferase of V2 cell lines corresponds to the activation or inhibition of the respective vasopressin receptor. The bioluminescence of the cell lines is detected using a suitable luminometer [Milligan G, Marshall F, Rees S, Trends in Pharmacological Sciences 17, 235-237 (1996)].
Sequence of human V1a receptor (P37288 whole entry): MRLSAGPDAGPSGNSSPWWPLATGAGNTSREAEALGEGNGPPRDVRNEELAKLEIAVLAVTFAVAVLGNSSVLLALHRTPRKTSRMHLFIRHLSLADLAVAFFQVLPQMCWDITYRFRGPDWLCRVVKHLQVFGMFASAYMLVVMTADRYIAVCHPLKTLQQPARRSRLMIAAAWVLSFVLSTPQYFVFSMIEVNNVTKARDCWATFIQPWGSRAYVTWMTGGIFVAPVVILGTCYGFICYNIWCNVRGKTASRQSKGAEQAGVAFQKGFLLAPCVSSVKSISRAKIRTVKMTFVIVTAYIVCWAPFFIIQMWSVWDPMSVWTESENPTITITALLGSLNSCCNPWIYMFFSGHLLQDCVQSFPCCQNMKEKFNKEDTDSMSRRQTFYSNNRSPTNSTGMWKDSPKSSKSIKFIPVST
On the day before the assay, the cells are plated out in culture medium (DMEM/F12, 2% FCS, 2 mM glutamine, 10 mM HEPES, 5 μg/ml coelenterazine) in 384-well microtiter plates and kept in a cell incubator (96% humidity, 5% v/v CO2, 37° C.). On the day of the assay, test compounds in various concentrations are placed for 10 minutes in the wells of the microtiter plate before the agonist [Arg^8]-vasopressin at EC50 concentration is added. The resulting light signal is measured immediately in the luminometer.

For a further experiment, the target named is human V2 receptor (Homo sapiens (Human), UniProt P30518). Description: Cellular in vitro assay for vasopressin receptor activity, V2 receptor cell line (CRE-luciferase). To be noted: CHO cell line transfected with human V2 receptor; [Arg8]-vasopressin at EC50; read-out: IC50 hV2. It counts as cell-based. The method, then:
as §1
On the day before the assay, the cells are plated out in culture medium (DMEM/F12, 2% FCS, 2 mM glutamine, 10 mM HEPES) in 384-well microtiter plates and kept in a cell incubator (96% humidity, 5% v/v CO2, 37° C.). […] Upon addition of the cell lysis reagent Triton™ and the substrate luciferin, luminescence of firefly luciferase is measured in a luminometer.

A further experiment deals with Wistar rats. Nature of the experiment: Diuresis investigations in conscious rats kept in metabolism cages. It counts as in vivo. To be noted: rat. How it is done: Wistar rats (220-450 g body weight) are kept with free access to feed (Altromin) and drinking water. During the experiment, the animals are kept with free access to drinking water for 4 to 8 or up to 24 hours individually in metabolism cages suitable for rats of this weight class (Tecniplast Deutschland GmbH, D-82383 Hohenpeißenberg). At the beginning of the experiment, the animals are administered the test substance in a volume of 1 to 3 ml/kg body weight of a suitable solvent by means of gavage into the stomach. Control animals only receive solvent. Controls and substance tests are carried out in parallel on the same day. Control groups and substance-dose groups each consist of 4 to 8 animals. During the experiment, the urine excreted by the animals is collected continuously in a receiver at the base of the cage. The volume of urine per time unit is determined separately for each animal, and the concentration of urinary electrolytes is measured by standard methods of flame photometry. Before the beginning of the experiment, the body weight of the individual animals is determined.

Sequence of human V2 receptor (P30518 whole entry): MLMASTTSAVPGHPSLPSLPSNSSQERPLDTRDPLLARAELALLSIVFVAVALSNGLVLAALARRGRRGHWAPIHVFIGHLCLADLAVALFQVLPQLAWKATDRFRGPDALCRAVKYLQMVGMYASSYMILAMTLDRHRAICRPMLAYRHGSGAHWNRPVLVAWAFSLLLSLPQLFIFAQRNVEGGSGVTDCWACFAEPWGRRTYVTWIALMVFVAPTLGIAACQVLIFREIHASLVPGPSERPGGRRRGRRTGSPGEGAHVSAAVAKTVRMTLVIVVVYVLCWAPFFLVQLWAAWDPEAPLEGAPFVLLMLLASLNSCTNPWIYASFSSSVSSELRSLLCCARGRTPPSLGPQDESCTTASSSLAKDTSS

The IC50 is the point on the concentration scale where inhibition reaches its midpoint. On to `CC(=O)c1nc(Cn2nc(-c3ccc(Cl)cc3)n(C[C@H](O)C(F)(F)F)c2=O)nn1-c1cccc(Cl)c1` [Example 1, 2-{[5-Acetyl-1-(3-chlorophenyl)-1H-1,2,4-triazol-3-yl]methyl}-5-(4-chlorophenyl)-4-[(2S)-3,3,3-trifluoro-2-hydroxypropyl]-2,4-dihydro-3H-1,2,4-triazol-3-one], for which the IC50 at human V1a receptor was determined as 34.5 nM; on human V2 receptor, 2.3 nM. In addition, the “Urinary volume [% vs. control = 100%]” value in the experiment with Wistar rats (0.3 mg/kg p.o.) is given as 344 % vs. control = 100%; in the experiment with Wistar rats (3.0 mg/kg p.o.) it was 554 % vs. control = 100%.

Turning to `CC(=O)c1nc(Cn2nc(-c3ccc(Cl)cc3)n(C[C@H](O)C(F)(F)F)c2=O)nn1-c1cccc(F)c1` [Example 2, 2-{[5-Acetyl-1-(3-fluorophenyl)-1H-1,2,4-triazol-3-yl]methyl}-5-(4-chlorophenyl)-4-[(2S)-3,3,3-trifluoro-2-hydroxypropyl]-2,4-dihydro-3H-1,2,4-triazol-3-one], the values for the IC50 at human V1a receptor and on human V2 receptor were 7.5 nM and 6.2 nM, respectively.

With `CC(=O)c1nc(Cn2nc(-c3ccc(Cl)cc3)n(C[C@H](O)C(F)(F)F)c2=O)nn1-c1ccccc1Cl` [Example 3, 2-{[5-Acetyl-1-(2-chlorophenyl)-1H-1,2,4-triazol-3-yl]methyl}-5-(4-chlorophenyl)-4-[(2S)-3,3,3-trifluoro-2-hydroxypropyl]-2,4-dihydro-3H-1,2,4-triazol-3-one], the IC50 at human V1a receptor stood at 0.5 nM; at human V2 receptor it was 4.9 nM. The “Urinary volume [% vs. control = 100%]” value with Wistar rats (0.3 mg/kg p.o.) is on record as 172 % vs. control = 100%; in the experiment on Wistar rats (3.0 mg/kg p.o.) it was 679 % vs. control = 100%.

For `CC(=O)c1nc(Cn2nc(-c3ccc(Cl)cc3)n(CC(=O)C(F)(F)F)c2=O)nn1-c1cccc(Cl)c1` [Example 4, 2-{[5-Acetyl-1-(3-chlorophenyl)-1H-1,2,4-triazol-3-yl]methyl}-5-(4-chlorophenyl)-4-(3,3,3-trifluoro-2-oxopropyl)-2,4-dihydro-3H-1,2,4-triazol-3-one], the values for the IC50 on human V1a receptor and at human V2 receptor were 123 nM and 7.7 nM, respectively.

As to `CC(O)c1nc(Cn2nc(-c3ccc(Cl)cc3)n(CC(=O)C(F)(F)F)c2=O)nn1-c1cccc(Cl)c1` [Example 5, 5-(4-Chlorophenyl)-2-({1-(3-chlorophenyl)-5-[(1S,R)-1-hydroxyethyl]-1H-1,2,4-triazol-3-yl}methyl)-4-(3,3,3-trifluoro-2-oxopropyl)-2,4-dihydro-3H-1,2,4-triazol-3-one], the IC50 at human V1a receptor was determined as 55 nM; at human V2 receptor, 2.8 nM.

For `O=c1n(Cc2nnc(-c3ccccc3Cl)[nH]2)nc(-c2ccc(Cl)cc2)n1C[C@H](O)C(F)(F)F` [Example No. WO 2011/104322 54], the figures for the “Urinary volume [% vs. control = 100%]” value in the experiment on Wistar rats (0.3 mg/kg p.o.) and in the experiment on Wistar rats (3.0 mg/kg p.o.) were 85 % vs. control = 100% and 188 % vs. control = 100%, respectively.

On to `COC(=O)Cn1nc(-c2ccccc2Cl)nc1Cn1nc(-c2ccc(Cl)cc2)n(C[C@H](O)C(F)(F)F)c1=O` [Example No. WO 2011/104322 56], for which the results for the half-inhibitory concentration (IC50) on human V1a receptor and on human V2 receptor were 1.3 nM and 6.7 nM, respectively. The “Urinary volume [% vs. control = 100%]” value in the experiment with Wistar rats (0.3 mg/kg p.o.) came out at 128 % vs. control = 100%; in the experiment on Wistar rats (3.0 mg/kg p.o.), 85 % vs. control = 100%.

Regarding `O=C(O)Cn1nc(Cn2nc(-c3ccc(Cl)cc3)n(C[C@H](O)C(F)(F)F)c2=O)nc1-c1ccccc1Cl` [Example No. WO 2011/104322 60], the “Urinary volume [% vs. control = 100%]” value with Wistar rats (0.3 mg/kg p.o.) is listed as 96 % vs. control = 100%; in the experiment with Wistar rats (3.0 mg/kg p.o.) it was 84 % vs. control = 100%.

With `NC(=O)Cn1nc(Cn2nc(-c3ccc(Cl)cc3)n(C[C@H](O)C(F)(F)F)c2=O)nc1-c1ccccc1Cl` [Example No. WO 2011/104322 68], the “Urinary volume [% vs. control = 100%]” value amounted to 87 % vs. control = 100% in the experiment on Wistar rats (0.3 mg/kg p.o.) and 121 % vs. control = 100% with Wistar rats (3.0 mg/kg p.o.).

With `O=c1n(Cc2cn(-c3ccccc3Cl)nn2)nc(-c2ccc(Cl)cc2)n1C[C@H](O)C(F)(F)F` [Example No. WO 2011/104322 101], the “Urinary volume [% vs. control = 100%]” value in the experiment on Wistar rats (0.3 mg/kg p.o.) is 111 % vs. control = 100%; in the experiment with Wistar rats (3.0 mg/kg p.o.) it was 255 % vs. control = 100%.

In the case of `O=c1n(Cc2cn(-c3ccccc3Cl)cn2)nc(-c2ccc(Cl)cc2)n1C[C@H](O)C(F)(F)F` [Example No. WO 2011/104322 110], the “Urinary volume [% vs. control = 100%]” value in the experiment with Wistar rats (0.3 mg/kg p.o.) was determined as 114 % vs. control = 100%; with Wistar rats (3.0 mg/kg p.o.), 274 % vs. control = 100%.
